Reference: patent US10508077B2 (FORMA Therapeutics, Inc., priority 2015, dated 2019)

Target: T1, Full length human recombinant HDAC8 protein (Homo sapiens, UniProt Q9BY41)
T1 construct: Full length human recombinant HDAC8 protein was expressed in baculoviral system; made in house
T1 sequence (Q9BY41 1-377): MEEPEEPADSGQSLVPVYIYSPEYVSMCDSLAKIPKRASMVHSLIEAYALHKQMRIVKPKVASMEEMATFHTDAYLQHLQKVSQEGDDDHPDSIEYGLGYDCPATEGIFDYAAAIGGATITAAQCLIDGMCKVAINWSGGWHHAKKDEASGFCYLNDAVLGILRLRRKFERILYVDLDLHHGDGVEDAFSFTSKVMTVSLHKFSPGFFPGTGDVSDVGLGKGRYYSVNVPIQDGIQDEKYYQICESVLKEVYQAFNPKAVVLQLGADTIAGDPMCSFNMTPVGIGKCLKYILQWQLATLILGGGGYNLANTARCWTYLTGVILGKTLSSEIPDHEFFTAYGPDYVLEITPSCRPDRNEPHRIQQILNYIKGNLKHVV
Assay: In vitro histone deacetylase assay: enzymatic HDAC8 assay, electrophoretic mobility shift
Type: biochemical
Details: substrate RHKK(Ac)-NH2, 1 nM enzyme, compounds listed under IC50 range headings
Method in brief: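 Readout was microfluidic mobility-shift separation of deacetylated product from fluorescent RHKK(Ac)-NH2 substrate (2 µM), after reaction with 1 nM recombinant full-length human HDAC8 at 25 °C, pH 7.5, stopped with SDS. Twelve 3-fold-spaced concentrations tested; product/sum ratios normalized to controls and fitted with a 4-parameter model for IC50.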

Row | IC50 [nM] | Compound
1 | < 1000 | O=C(/C=C/c1ccccc1N1CCN(C(=O)c2ccc(C(F)(F)F)cc2)CC1=O)NO [Example I-532, (E)-N-hydroxy-3-(2-(2-oxo-4-(4-(trifluoromethyl)benzoyl)piperazin-1-yl)phenyl)acrylamide]
2 | 1000 to 10000 | O=C(/C=C/c1ccccc1C(=O)Nc1ccc(-c2ccccc2)c(C(F)(F)F)c1)NO [II-1]
3 | 1000 to 10000 | O=C(/C=C/c1ccccc1C(=O)Nc1ccccc1)NO [II-2, (E)-2-(3-(hydroxyamino)-3-oxoprop-1-en-1-yl)-N-phenylbenzamide]
4 | 1000 to 10000 | CCc1ccc(NC(=O)c2ccccc2/C=C/C(=O)NO)cc1 [II-3, (E)-N-(4-ethylphenyl)-2-(3-(hydroxyamino)-3-oxoprop-1-en-1-yl)benzamide]
5 | 1000 to 10000 | O=C(/C=C/c1ccccc1C(=O)NCC1CCCCC1)NO [II-4, (E)-N-(cyclohexylmethyl)-2-(3-(hydroxyamino)-3-oxoprop-1-en-1-yl)benzamide]
6 | 1000 to 10000 | COc1ccc(CNC(=O)c2ccccc2/C=C/C(=O)NO)cc1 [II-5, (E)-2-(3-(hydroxyamino)-3-oxoprop-1-en-1-yl)-N-(4-methoxybenzyl)benzamide]
7 | 1000 to 10000 | O=C(/C=C/c1ccccc1C(=O)NCCc1ccc(F)cc1)NO [II-6, (E)-N-(4-fluorophenethyl)-2-(3-(hydroxyamino)-3-oxoprop-1-en-1-yl)benzamide]
8 | 1000 to 10000 | O=C(/C=C/c1ccccc1C(=O)NCc1ccc(-c2ccccc2)cc1)NO [II-7, (E)-N-([1,1′-biphenyl]-4-ylmethyl)-2-(3-(hydroxyamino)-3-oxoprop-1-en-1-yl)benzamide]
9 | 1000 to 10000 | CC(=O)NC1CCN(C(=O)c2ccccc2/C=C/C(=O)NO)CC1 [II-8, (E)-3-(2-(4-acetamidopiperidine-1-carbonyl)phenyl)-N-hydroxyacrylamide]
10 | 1000 to 10000 | O=C(/C=C/c1ccccc1C(=O)N1CCC2(CC1)OCc1ccccc12)NO [II-9, (E)-3-(2-(3H-spiro[isobenzofuran-1,4′-piperidine]-1′-carbonyl)phenyl)-N-hydroxyacrylamide]
11 | 1000 to 10000 | O=C(/C=C/c1ccccc1C(=O)N1CC(N2CCS(=O)(=O)CC2)C1)NO [II-10, (E)-3-(2-(3-(1,1-dioxidothiomorpholino)azetidine-1-carbonyl)phenyl)-N-hydroxyacrylamide]
12 | 1000 to 10000 | COCC1(N(C)C(=O)c2ccccc2/C=C/C(=O)NO)CC1 [II-11, (E)-2-(3-(hydroxyamino)-3-oxoprop-1-en-1-yl)-N-(1-(methoxymethyl)cyclopropyl)-N-methylbenzamide]
13 | 1000 to 10000 | O=C(/C=C/c1ccccc1C(=O)N1C2CCC1CC2)NO [II-12, (E)-3-(2-(7-azabicyclo[2.2.1]heptane-7-carbonyl)phenyl)-N-hydroxyacrylamide]
14 | < 1000 | O=C(/C=C/c1ccccc1C(=O)NC1CCCCC1)NO [II-13, (E)-N-cyclohexyl-2-(3-(hydroxyamino)-3-oxoprop-1-en-1-yl)benzamide]
15 | < 1000 | CCCCc1ccc(NC(=O)c2ccccc2/C=C/C(=O)NO)cc1 [II-14, (E)-N-(4-butylphenyl)-2-(3-(hydroxyamino)-3-oxoprop-1-en-1-yl)benzamide]
16 | < 1000 | O=C(/C=C/c1ccccc1C(=O)N1CCCCC1)NO [II-16, (E)-N-hydroxy-3-(2-(piperidine-1-carbonyl)phenyl)acrylamide]
17 | < 1000 | O=C(/C=C/c1ccccc1C(=O)N1CCC(F)(F)CC1)NO [II-17, (E)-3-(2-(4,4-difluoropiperidine-1-carbonyl)phenyl)-N-hydroxyacrylamide]
18 | < 1000 | CN(Cc1cccc(C(F)(F)F)c1)C(=O)c1ccccc1/C=C/C(=O)NO [II-18]
19 | < 1000 | O=C(/C=C/c1ccccc1C(=O)N1CCN(c2ccccc2)CC1)NO [II-19, (E)-N-hydroxy-3-(2-(4-phenylpiperazine-1-carbonyl)phenyl)acrylamide]
20 | < 1000 | O=C(/C=C/c1ccccc1C(=O)N1CCN(c2ccncc2)CC1)NO [II-20]
